ChEMBL document CHEMBL1201862, “PubChem BioAssay data set” (2004)
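Results reflect a 48-hour exposure of cells in 96-well plates to compound at five concentrations. GI50: concentration for 50% inhibition of growth.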 Calls of active or inactive are those of the source. No stated cut-off is given here; in the data, active = GI50 up to about 1.1 µM and inactive = higher.

Legend:
Assay in all cases: NCI-60 cell line screen, 48 h
[1] = system: U-251
[2] = system: MDA-MB-435
[3] = system: SK-OV-3
[4] = system: UACC-257
[5] = system: RPMI-8226
[6] = system: SK-MEL-2
[7] = system: SF-268
[8] = system: UO-31
[9] = system: SN12C
[10] = system: MOLT-4
[11] = system: DU-145
[12] = system: NCI/ADR-RES
[13] = system: HT-29
[14] = system: HCT-116
[15] = system: NCI-H460
[16] = system: Malme-3M
[17] = system: SF-539
[18] = system: RXF 393
[19] = system: A549
[20] = system: MDA-N

Measured: GI50

O=C1CCSC(=S)N1c1ccc(Br)c(Cl)c1
inactive: [1] 27.1 µM | [2] 26.8 µM | [3] 37.6 µM | [4] 19.9 µM | [5] 33.7 µM | [6] 28.4 µM | [7] 18.5 µM | [8] 30.2 µM | [9] 41.2 µM | [10] 37.4 µM | [11] 43.8 µM | [12] 42.9 µM | [13] 16.1 µM | [14] 36.5 µM | [15] 21.8 µM | [16] 22.9 µM | [17] 33 µM | [18] 20.1 µM | [19] 35.3 µM

COC(=O)C12C3C4(C(=O)OC)C1C1(C(=O)OC)C2C3(C(=O)OC)C41C(=O)N(C(C)C)C(C)C (stereo not given)
inactive: [1] > 100 µM | [2] > 100 µM | [4] > 100 µM | [20] > 100 µM | [6] > 100 µM | [7] > 100 µM | [8] > 100 µM | [9] > 100 µM | [10] > 100 µM | [11] > 100 µM | [12] > 100 µM | [13] > 100 µM | [14] > 100 µM | [15] > 100 µM | [17] > 100 µM | [18] > 100 µM | [19] > 100 µM

O=c1c2c3c(sc2nc2n1N=C(c1ccc(Br)cc1)CS2)CCCC3
inactive: [1] > 100 µM | [2] > 100 µM | [3] > 100 µM | [4] > 100 µM | [20] > 100 µM | [7] > 100 µM | [8] > 100 µM | [9] > 100 µM | [10] > 100 µM | [11] > 100 µM | [12] > 100 µM | [13] > 100 µM | [14] > 100 µM | [15] > 100 µM | [16] > 100 µM | [17] > 100 µM | [18] > 100 µM | [19] > 100 µM

CC1NC(/C(=C/c2ccccc2O)NC(=O)c2ccccc2)OC1=O (stereo not given)
inactive: [1] > 50 µM | [2] 28.8 µM | [3] 48.2 µM | [4] > 50 µM | [5] > 50 µM | [20] 4.05 µM | [6] > 50 µM | [8] > 50 µM | [9] > 50 µM | [10] > 50 µM | [12] > 50 µM | [13] > 50 µM | [14] > 50 µM | [16] 9.31 µM | [17] 11.5 µM | [19] > 50 µM

Fc1ccc(OCc2ccc3nc(-c4ccccc4)c(Cl)nc3c2)cc1
inactive: [1] 16.8 µM | [2] 91.4 µM | [4] > 100 µM | [5] 96.2 µM | [20] 72.4 µM | [6] 41.9 µM | [7] 26 µM | [8] > 100 µM | [9] 56.6 µM | [10] 21.6 µM | [11] 30.5 µM | [12] 34.1 µM | [13] 65.2 µM | [14] 31.6 µM | [15] 30.1 µM | [16] 9.44 µM | [17] 16 µM | [19] 38.6 µM

CC(C)C/C=C/C1=NN(c2cccc(S(=O)(=O)O)c2)C2(C1)SCC(=O)N2c1nc2ccccc2s1 (stereo not given)
inactive: [1] 30.1 µM | [2] 31.1 µM | [4] > 100 µM | [5] 21.6 µM | [6] 35.2 µM | [7] 37.2 µM | [8] 50.1 µM | [9] 31.9 µM | [10] 33.8 µM | [11] 44.2 µM | [12] 71.6 µM | [13] > 100 µM | [14] 67.8 µM | [15] 38 µM | [16] 93.1 µM | [17] 61.4 µM | [18] 98.4 µM | [19] 89.1 µM

c1cc2c3c(c1)[C@@H]1O[C@@H]1c1cccc(c1-3)[C@@H]1O[C@H]21
inactive: [1] 16.9 µM | [2] 14.3 µM | [3] > 100 µM | [4] 18.2 µM | [20] 17.9 µM | [6] 17.4 µM | [7] 16.3 µM | [8] 14.6 µM | [9] 19.7 µM | [10] 35 µM | [11] 18 µM | [12] 22.4 µM | [13] 17.7 µM | [14] 15 µM | [16] 15.4 µM | [18] 2.93 µM | [19] 31.6 µM

C=C(C)CC1=C(OCC)C(OC)(OCC)C1=O (stereo not given)
inactive: [1] > 100 µM | [2] > 100 µM | [3] > 100 µM | [4] > 100 µM | [20] > 100 µM | [6] > 100 µM | [7] > 100 µM | [8] > 100 µM | [9] > 100 µM | [10] > 100 µM | [11] > 100 µM | [12] > 100 µM | [13] > 100 µM | [14] > 100 µM | [15] > 100 µM | [17] > 100 µM | [19] > 100 µM

Cn1c2c(c3ccccc3c1=O)C(=O)c1ccccc1-2
inactive: [1] 35.3 µM | [2] > 100 µM | [3] 81.7 µM | [4] > 100 µM | [5] > 100 µM | [20] > 100 µM | [6] > 100 µM | [7] 51.8 µM | [8] 21.9 µM | [9] 80.2 µM | [10] 3.07 µM | [11] > 100 µM | [12] 51.2 µM | [13] 97.5 µM | [14] 15.5 µM | [16] > 100 µM | [17] 19.7 µM | [19] > 100 µM

CC(C)(C)[C@@H]1NC(=O)CN1C(=O)OCc1ccccc1
inactive: [1] > 100 µM | [2] > 100 µM | [3] > 100 µM | [4] > 100 µM | [5] > 100 µM | [6] > 100 µM | [7] > 100 µM | [8] > 100 µM | [9] > 100 µM | [10] > 100 µM | [11] > 100 µM | [12] > 100 µM | [13] > 100 µM | [14] > 100 µM | [15] > 100 µM | [16] > 100 µM | [17] > 100 µM | [18] > 100 µM | [19] > 100 µM

CC(C)(O)C1CC(=O)C(C)(C2C(O)CC3(C)C4CC=C5C(CCC(O)C5(C)C)C4(C)C(=O)CC23C)O1 (stereo not given)
inactive: [1] > 100 µM | [2] > 100 µM | [3] > 100 µM | [4] > 100 µM | [5] > 100 µM | [20] > 100 µM | [6] > 100 µM | [7] > 100 µM | [8] > 100 µM | [9] > 100 µM | [10] > 100 µM | [11] > 100 µM | [13] > 100 µM | [14] > 100 µM | [15] > 100 µM | [17] > 100 µM | [18] > 100 µM | [19] > 100 µM
